B1: OPG: Osteoprotegerin, reference inhibitor of osteoclast differentiation (protein, UniProt O00300 22-401, looked up)
Tumor necrosis factor …: ETFPPKYLHYDEETSHQLLCDKCPPGTYLKQHCTAKWKTVCAPCPDHYYTDSWHTSDECLYCSPVCKELQYVKQECNRTHNRVCECKEGRYLEIEFCLKHRSCPPGFGVVQAGTPERNTVCKRCPDGFFSNETSSKAPCRKHTNCSVFGLLLTQKGNATHDNICSGNSESTQKCGIDVTLCEEAFFRFAVPTKFTPNWLSVLVDNLPGTKVNAESVERIKRQHSSQEQTFQLLKLWKHQNKDQDIVKKIIQDIDLCENSVQRHIGHANLTFEQLRSLMESLPGKKVGAEDIEKTIKACKPSDQILKLLSLWRIKNGDQDTLKGLMHALKHSKTYHFPKTVTQSLKKTIRFLHSFTMYKLYQKLFLEMIGNQVQSVKISCL

Assays:
[1] = system: KS483 mouse osteoprogenitor cells; test: Osteoblast differentiation assay (cellular ALP activity at day 8); assay type: cell-based; conditions: reference stimulator, 10 nM
Protocol: In the third part, KS483 mouse osteoprogenitor cells were cultured for 8 days, after which the formed mature osteoblasts were quantitated by measuring the amount of intracellular alkaline phosphatase (ALP) activity. […] The effects on osteoblasts were studied using KS483 mouse osteoprogenitor cells that can be induced to differentiate into bone-forming osteoblasts. […] In the osteoblast differentiation assay, the cells were cultured for 8 days, after which the formed mature osteoblasts were quantitated by measuring the amount of intracellular alkaline phosphatase (ALP) activity. […] A culture system was established that can be used as an in vitro model for studying the effects of anabolic and estrogen-like compounds on osteoblast differentiation and activity. In this culture system mouse KS483 cells first proliferate and then differentiate into osteoblasts capable of forming mineralized bone nodules in the presence of ascorbic acid and ß-glycerophosphate (Fagerlund et al. 2009). The test and reference compounds are added into the cell cultures concomitantly with the medium change, and their effects on the differentiation and activity of osteoblasts are determined. Cellular ALP, a marker of osteoblast differentiation, is determined from the cell lysates as described earlier (Lowry et al. 1954). Secreted PINP, a marker of organic bone matrix formation, is determined from the culture medium using a commercially available method (Rat/Mouse PINP EIA, IDS Ltd, Boldon, UK). Calcium deposition, an index of inorganic bone matrix formation, is measured using a commercially available calcium assay (Roche Diagnostics). Mouse KS483 cells were cultured in T-75 tissue culture flasks in aMEM supplemented with 10% charcoal-stripped fetal bovine serum until 80-90% confluence. The cells were incubated in a CO2 incubator in humidified atmosphere of 95% air and 5% carbon dioxide at 37° C. After reaching 80-90% confluence, subcultures were prepared. Cells were removed from the flasks with trypsin treatment and counted. For induction of the maturation of osteoblasts and bone formation, the immature osteoblastic cells were plated in type I collagen-coated 96-well plates. The cells were cultured for 8 days with a supplement of ascorbic acid ([…]), and half of the media was changed every 3-4 days. The test compound and control substance (E2) were added in the beginning of the culture period and when the medium was changed. The cultures were stopped at day 8 by removing the culture media from the wells, and cell lysates were prepared. Cellular ALP activity and total protein content (Protein Assay, Bio-Rad Laboratories Inc, CA, USA) were quantitated by using VICTOR2™ Multilabel Counter (PerkinElmer, Waltham, Mass., USA).

[2] = system: KS483 mouse osteoprogenitor cells; test: Osteoblast activity assay (PINP at day 11, calcium deposition at day 13); assay type: cell-based; conditions: reference stimulator, 10 nM
Protocol: The effects on osteoblasts were studied using KS483 mouse osteoprogenitor cells that can be induced to differentiate into bone-forming osteoblasts. […] In the osteoblast differentiation assay, the cells were cultured for 8 days, after which the formed mature osteoblasts were quantitated by measuring the amount of intracellular alkaline phosphatase (ALP) activity. […] A culture system was established that can be used as an in vitro model for studying the effects of anabolic and estrogen-like compounds on osteoblast differentiation and activity. In this culture system mouse KS483 cells first proliferate and then differentiate into osteoblasts capable of forming mineralized bone nodules in the presence of ascorbic acid and ß-glycerophosphate (Fagerlund et al. 2009). The test and reference compounds are added into the cell cultures concomitantly with the medium change, and their effects on the differentiation and activity of osteoblasts are determined. Cellular ALP, a marker of osteoblast differentiation, is determined from the cell lysates as described earlier (Lowry et al. 1954). Secreted PINP, a marker of organic bone matrix formation, is determined from the culture medium using a commercially available method (Rat/Mouse PINP EIA, IDS Ltd, Boldon, UK). Calcium deposition, an index of inorganic bone matrix formation, is measured using a commercially available calcium assay (Roche Diagnostics). Mouse KS483 cells were cultured in T-75 tissue culture flasks in aMEM supplemented with 10% charcoal-stripped fetal bovine serum until 80-90% confluence. The cells were incubated in a CO2 incubator in humidified atmosphere of 95% air and 5% carbon dioxide at 37° C. After reaching 80-90% confluence, subcultures were prepared. Cells were removed from the flasks with trypsin treatment and counted. For induction of the maturation of osteoblasts and bone formation, the immature osteoblastic cells were plated in type I collagen-coated 96-well plates. The cells were cultured for 13 days with a supplement of ascorbic acid (50 μg/ml) and ß-glycerophosphate (5 mM), and half of the media was changed every 3-4 days. The test compound and control substance (E2) were added in the beginning of the culture period and when the medium was changed. Secreted PINP was measured from the culture medium at day 11 as a marker of organic bone matrix formation. The cultures were stopped at day 13 by removing the culture media from the wells and adding hydrochloric acid. Calcium deposited into the formed bone matrix was quantitated by using VICTOR2™ Multilabel Counter (PerkinElmer, Waltham, Mass., USA).

[3] = system: rat ovariectomy (OVX) model; test: Short-term effects on body weight, uterine weight and bone turnover markers in the rat ovariectomy (OVX) model; assay type: in vivo, rat (Sprague-Dawley); design: key to Body weight, change during the first week / Body weight, change during the in-life phase / Relative uterine weight at day 14 / Serum PINP levels, change during the in-life phase / Serum OC levels, change during the in-life phase / Serum CTX levels, change during the in-life phase / Serum TRACP 5b activity, change during the in-life phase: An upwards arrow (↑) indicates a statistically significant increase; a downwards arrow (↓) a statistically significant decrease; One asterisk (*) indicates a statistical significance with a p-value<0.05; two asterisks (**) with a p-value<0.01; three asterisks (***) with a p-value<0.001; NS=Non-significant
From the text: The objective of this study was to investigate short-term effects of Compound 1 on biochemical serum markers of bone metabolism in a prevention study in a rat ovariectomy (OVX) model for postmenopausal osteoporosis. 17β-estradiol (E2) was used as a reference compound. The following five experimental groups were included in the study:
Each group contained eight female rats (Sprague-Dawley) that were three months of age at the beginning of in-life phase of the study. Before the start of the in-life phase, animals were weighed, their blood samples were harvested, and animals were randomized to study groups by stratification according to body weight and serum levels of procollagen type I N-terminal propeptide (PINP). At the beginning of the in-life phase, animals were weighed and operated. Treatment was started one day after the operations and continued once a day for two weeks. Sterile water was used as vehicle in groups 1 and 2. Body weight was determined after one week of treatment and treatment doses were adjusted accordingly. After two weeks of treatment, animals were weighed, their blood samples were harvested, animals were terminated, and their relative uterine weight was determined. For analyzing short-term effects of treatments, levels of four bone metabolism biomarkers were determined in serum samples harvested before the start and at the end of the in-life phase. These biomarkers included PINP as a marker of bone formation, N-terminal mid-fragment of osteocalcin (OC) as a general marker of bone turnover, C terminal cross-linked telopeptides of type I collagen (CTX) as a marker of bone resorption, and tartrate-resistant acid phosphatase isoform 5b (TRACP 5b) as a marker of osteoclast number. Serum levels at day −7 were used as baseline levels and serum levels at day 14 as levels affected by operations and treatments.
Each group contained eight female rats (Sprague-Dawley) that were three months of age at the beginning of in-life phase of the study. Animals were randomized to study groups by stratification according to their body weight and serum levels of procollagen type I N-terminal propeptide (PINP) measured one week before the start of the in-life phase (at day −7). At the beginning of the in-life phase (at day 0), animals were weighed, animals in groups 2-5 were ovariectomized, and animals in group 1 SHAM-operated. Treatment was started one day after the operations and continued once a day for two weeks (up to day 13). Sterile water was used as vehicle in groups 1 and 2. Body weight was determined at the beginning of the in-life phase (at day 0), one week after the start of the inlife phase (at day 7), and at the end of the in-life phase (at day 14). Treatment doses were adjusted according to the latest body weight obtained. After two weeks of treatment (at day 14), animals were weighed, their blood samples were harvested, animals were terminated, and their relative uterine weight was determined. For analyzing short-term effects of treatments, levels of four bone metabolism biomarkers were measured in serum samples harvested before the start of the in-life phase (at day −7) and at the end of the in-life phase (at day 14). These biochemical serum markers included PINP, N-terminal mid-fragment of osteocalcin (OC), C-terminal cross-linked telopeptides of type I collagen (CTX), and tartrate-resistant acid phosphatase isoform 5b (TRACP 5b). Serum levels obtained at day −7 were used as baseline levels and serum levels obtained at day 14 as levels affected by surgical operations and treatments.
Biochemical markers of bone metabolism are useful tools for monitoring osteoporosis therapy and for prediction of fracture risk and long-term changes in bone mineral density (Cremers et al. 2008). […]

[4] = system: human bone marrow-derived CD34+ osteoclast precursor cells; test: Osteoclast differentiation assay (secreted TRACP 5b at day 7); assay type: cell-based; conditions: reference inhibitor, 5 nM
Protocol: The study was performed in four parts. In the first part, human bone marrow-derived CD34+ osteoclast precursor cells were cultured on bovine bone slices for 7 days, after which the formed osteoclasts were quantitated by measuring tartrate-resistant acid phosphatase 5b activity (TRACP 5b) in the culture medium.
The objective of this study was to investigate the effects of Compound 1 selected by the Sponsor on differentiation and activity of human osteoclasts and mouse osteoblasts in vitro. The effects on osteoclasts were studied using a model where bone marrow-derived human osteoclast precursor cells are cultured on bovine bone slices for 7 days in conditions favouring osteoclast differentiation, and allowed to differentiate into bone-resorbing osteoclasts. After completion of osteoclast differentiation at day 7, the culture medium was removed and new culture medium favouring osteoclast activity was added into the wells. The mature osteoclasts were then cultured for an additional 3 days, allowing them to resorb bone. In the osteoclast differentiation assay, the test compounds and a reference inhibitor osteoprotegerin (OPG) were added into cultures at day 0. In the osteoclast activity assay, the test compounds and a reference inhibitor E64 were added into cultures at day 7. Seven concentrations in 8 replicates were tested in both assays. Tartrate-resistant acid phosphatase 5b activity (TRACP 5b) was measured from the culture medium collected at day 7 as an index of the number of osteoclasts formed in each well during the differentiation period. C-terminal cross-linked telopeptides of type I collagen (CTX) was measured from the culture medium collected at day 10 to quantitate bone resorption during days 7-10.
A human osteoclast culture system was developed for use in this study where CD34+ osteoclast precursor cells derived from human bone marrow (Poietics® Human Osteoclast Precursors, Lonza, Walkersville, USA) are cultured on bovine bone slices in the presence of appropriate growth factors, including M-CSF and RANK-ligand (Rissanen et al. 2009). The cells are first allowed to differentiate into mature bone-resorbing osteoclasts, and the formed osteoclasts are then allowed to resorb bone. The test and reference compounds are added into the cell cultures at the beginning of the differentiation and/or the resorption period, and their effects on the differentiation and/or resorbing activity of osteoclasts are determined.
Secreted TRACP 5b is determined from the culture medium after the differentiation period using a commercially available method (BoneTRAPÒ, IDS Ltd, Boldon, UK). Secreted TRACP 5b describes accurately the number of osteoclasts formed in each well during the differentiation period. CTX is determined from the culture medium after the resorption period using a commercially available method (CrossLapsÒ for cultures, IDS Ltd, Boldon, UK). CTX describes accurately the amount of bone collagen degradation products released into the culture medium in each well during the resorption period.
In this study, human bone marrow-derived CD34+ stem cells (10000 cells/well) were suspended in culture medium and allowed to attach to bovine bone slices in 96-well tissue culture plates. The culture medium (containing 10% FBS, OCP BulletKit® Lonza, Walkersville, USA) was supplemented with appropriate amounts of important growth factors favoring osteoclast differentiation and activity, including M-CSF (33 ng/ml, OCP BulletKit® Lonza, Walkersville, USA) and RANK-ligand (66 ng/ml, OCP BulletKit® Lonza, Walkersville, USA) in 200 μl of medium. The cells were incubated in a CO2 incubator in humidified atmosphere of 95% air and 5% carbon dioxide at 37° C. for 7 days. The test compounds and reference compound OPG were added at day 0. Supernatants collected at day 7 were stored at −70° C. until analysis of TRACP 5b. TRACP 5b was measured from the culture medium (20 μl/sample) using VICTOR2™ Multilabel Counter (PerkinElmer, Waltham, Mass., USA). […]

[5] = OVX rats vs OVX vehicle, E2 4 μg/kg/d s.c.
[6] = OVX rats, 17β-estradiol 4 μg/kg/d s.c., two weeks

Row | Molecule | effect on osteoblast differentiation [1] | effect on osteoblast activity [2] | Body weight, change during the first week [3, 5] | Body weight, change during the in-life phase [3, 5] | Relative uterine weight at day 14 [3, 5] | Serum CTX levels, change during the in-life phase [3, 5] | Serum OC levels, change during the in-life phase [3, 5] | Serum PINP levels, change during the in-life phase [3, 5] | Serum TRACP 5b activity, change during the in-life phase [3, 5] | OVX-induced gain in body weight [3, 6] | OVX-induced increase in serum CTX levels [3, 6] | OVX-induced increase in serum OC levels [3, 6] | OVX-induced increase in serum PINP levels [3, 6] | OVX-induced reduction in relative uterine weight [3, 6] | OVX-induced reduction in serum TRACP 5b activity [3, 6] | effect on osteoclast differentiation [4]
1 | C[C@]12CC[C@@H]3c4ccc(O)cc4CC[C@H]3[C@@H]1CC[C@@H]2O [Compound E2, 17β-estradiol, reference compound] | stimulated significantly | stimulated significantly | ↓ ** | ↓ ** | ↑ ** | ↓ *** | ↓ *** | ↓ ** | NS | prevented | prevented | prevented | prevented | prevented | did not affect | 
2 | B1 |  |  |  |  |  |  |  |  |  |  |  |  |  |  |  | inhibited significantly

From patent US10166225B2, “Method for treating osteoporosis” (Exelixis, Inc., priority 2011, dated 2019)
